# Patent US5470877A, “Uses of perillic acid methyl ester” (Wisconsin Alumni Research Foundation, priority 1994, dated 1995)
# Like-named read-outs stand apart in the source and are kept apart here.
# Columns and labels:
# [1] = tested on: HT29 cells; assay: Inhibition of HT29 colon adenocarcinoma cell growth/proliferation; type: cell-based, human
# Experimental: (§1) We examined the effect of several of the terpenes on certain types of cell growth. […] Additionally, growth of HT29 (human colon adenocarcinoma) cells was inhibited by 80% by 1 mM perillyl alcohol.
# [2] = tested on: M600B cells; assay: M600B cell growth inhibition (FIG. 4); type: cell-based; conditions: M600B (human) cells
# Experimental: NIH3T3 (mouse embryo) cells were obtained from the American Type Culture Collection and were grown in Dulbecco's modified Eagle's medium supplemented with 10% calf serum. M600B immortalized human mammary epithelial cells (Stampfer, M.R., 1985, J. Tissue Culture Methods 9:107-115) were, obtained from Dr. Martha Stampfer and were grown in supplemented HCDB 170 medium (Hammond, et al. (1984) Proc. Natl. Acad. Sci U.S.A. 81:5435-5439), as described previously (Stampfer, et al. (1985) Proc. Natl. Acad. Sci U.S.A. 82:2394-2398; Eldridge, et al. (1989) Cancer Res. 49:4326-4331).
# All cells were maintained in 100-mm dishes at 37° C. in a humidified 5% CO2 atmosphere. Viable cells were distinguished from nonviable cells by counting azure II/methylene blue-stained colonies 10 days after the cells were plated at a density of 100 cells per dish. Trypan blue exclusion was measured by incubating cells for 1 min with one drop of trypan blue per 10 ml of cells. Viable (colorless) and nonviable (blue) cells were then counted on a hemocytometer.
# as §1
# [3] = tested on: CoQ9 and cholesterol synthesis; assay: Mevalonate metabolism: CoQ9 and cholesterol synthesis in NIH3T3 cells; type: cell-based, mouse; conditions: for activity at 1000 µM: Mus musculus, NIH3T3, 3 h, average of four experiments ± SD
# Experimental: Analysis of Mevalonate Metabolism. NIH3T3 cells were grown in Dulbecco's modified Eagle's medium supplemented with 10% calf serum. […] The cells were then trypsinized, washed and resuspended in phosphate-buffered saline. The protein concentrations were determined using a bicinchoninic acid protein assay (Shihabi, et al, Ann. Clin. Lab. Sci. 18:235-239, 1988). Samples containing equal amount of protein were spotted on TLC plates with or without acetone extraction (Maziere, et al, J. Biochem. Biophys. Methods 14:267-272, 1987.) The TLC plates were developed with hexane/diethyl ether/acetic acid (70:30:2, v/v) (Maziere, et al, Supra). Dry plates were analyzed for radioactivity using a phosphorimager (Molecular Dynamics).
# Labeling Cells with [^14 C(U)] Tyrosine. NIH3T3 cells were treated with 30 μM lovastatin for 18 hours and then incubated in fresh tyrosine deficient minimum essential medium (supplemented with 10% dialyzed fetal bovine serum) containing 400 μM mevalonic acid lactone (Sigma) and 14 μCi/ml [^14 C(U)] tyrosine (500 mCi/mmol) for 3 hours in the absence or presence of 1 mM perillyl alcohol. Cells were harvested and lipids were analyzed as described above.
# HPLC Analysis of Unsaponifiable Lipids. Cells were labeled with [2-^14 C] mevalonolactone as described above and then were saponified as described by Popjak et al, J. Lipid Res, 26:831-841, 1985. Unsaponifiable lipids were extracted with petroleum ether, dried and dissolved in chloroform methanol (1:1, v/v). Reverse phase HPLC using a Bio-Rad ODS-5S (25 cm×4 mm) column fitted with a Sigma hypersil ODS guard column was run isocratically with methanol/acetonitrile/water (72.5:22.5:5, v/v) at a flow rate of 0.8 ml/min. The effluent was monitored at 210 nm, the fractions were collected, and radioactivities were determined with a Beckman LS 6000IC Scintillation Counter.
# [4] = Effect of dietary perillyl alcohol on serum cholesterol and lipids in rats; type: in vivo, Wistar-Furth rat
# Description: Twenty-one female, six-weeks-old, Wistar-Furth rats were divided into three different diet groups of seven rats each. One group was fed a control diet, one group was fed a 1% perillyl alcohol diet, and one group was fed a 2% perillyl alcohol diet. Rats from each diet group were matched into pair feeding groups.
# Rats in the control group were pair fed against rats in the 2% POH diet group. Rats in the 1% POH diet group were allowed to eat as much as they wanted. After one month, rats in the 1% POH diet group were also pair fed against rats in 2% POH group. After two months of feeding, rats in all groups were allowed to eat as much as they wanted. The rats were allowed to eat as much as they wanted because the diurnal rhythm of HMGCoA reductase activity might be related to food intake.
# The rats' body weights were measured twice a week. Perillyl alcohol diets were made once a week and replaced daily.
# […] About 1 ml blood was taken from each rat each time and collected in heparin (SIGMA) coated tube. For CoQ analysis, 0.5 ml blood was added to the CoQ6 standard. For cholesterol analysis the blood were spun down at 3,000 rpm for 10 minutes and the plasma were taken. By three months, all rats were killed.
# Total cholesterol, HDL cholesterol and triglyceride levels in the rats' plasma were measured using diagnostic kits from SIGMA according to manufacturer's instructions. LDL cholesterol levels were calculated by Friedewald's equation. […]
# [5] = tested on: HT29 cells; assay: Protein isoprenylation in HT29 cells; type: cell-based, human
# [6] = tested on: 21-26 kDa proteins; assay: Protein isoprenylation inhibition in M600B human mammary epithelial cells; conditions: 3 mM
# Experimental: To test whether a specific monoterpene affects isoprenylation of proteins in cells, cell extracts were incubated with a radioactive isoprene precursor and 0-5 mM of the test monoterpene and then subjected to SDS-PAGE. Because they carried a radioactive label, isoprenylated proteins were visualized by fluorography. As a control, cells were incubated without the monoterpene.
# For both isoprenylation and cell growth assays, the monoterpenes were mixed with prewarmed (37° C.) medium containing 10% calf serum, and then the monoterpene-containing medium was added to cells. The relative effects of various monoterpenes on protein isoprenylation were compared by comparison of the relative intensity of bands on fluorograms from [^14 C]-mevalonate-labelled cells treated with each monoterpene.
# Some fluorograms were analyzed further by densitometry. Where indicated, gels were sliced, dissolved at 50° C. for 3 hours in 0.5 ml of water+0.5 ml of Solvable (Amersham), and then analyzed by scintillation spectrometry in 10 ml of Atom light (Amersham) mixture.
# Samples from each cell line were then analyzed on the same gel.
smiles,measurement,setting,value
C=C(C)[C@@H]1CC=C(CO)CC1 [perillyl alcohol],"Rank order, inhibition of HT-29 tumor cell proliferation","[1]; 1 = greatest inhibition, 5 = least inhibition",1
same,IC50,"[1]; Homo sapiens, HT-29, read-out: IC50 HT29 tumor cell proliferation",50 µM
same,inhibition at 1000 µM,"[1]; Homo sapiens, HT-29, read-out: growth inhibition of HT29 cells",80%
same,HT29 cell growth,[1]; colon adenocarcinoma cells,regression of cell growth
same,inhibition of cell growth,[2],significantly inhibited cell growth in a dose-dependent manner
same,CoQ9 labeled from [14C(U)] tyrosine,[3]; 1 mM perillyl alcohol,greatly reduced
same,activity at 1000 µM,"[3]; 1 mM perillyl alcohol, read-out: Cholesterol + Lathosterol synthesis (% of Control)",107 ± 16.5%
same,activity at 1000 µM,"[3]; 1 mM perillyl alcohol, read-out: Cholesterol synthesis (% of Control)",26.7 ± 4.7%
same,activity at 1000 µM,"[3]; 1 mM perillyl alcohol, read-out: CoQ9 synthesis (% of Control)",14.1 ± 4.6%
same,activity at 1000 µM,"[3]; 1 mM perillyl alcohol, read-out: Lathosterol synthesis (% of Control)",427 ± 130%
same,recovery of labeled CoQ9,[3]; cold control medium up to 6 hours post-labeling,labeled CoQ9 could not be observed
same,block of cholesterol synthesis on continued exposure,[3]; continually grown in 1 mM perillyl alcohol,maintained the block of cholesterol synthesis
same,conversion of labeled cholesterol back to lathosterol,[3]; reincubated in 1 mM perillyl alcohol after control medium,did not convert labeled cholesterol back to labeled lathosterol
same,neutral lipid metabolism changes in treated cells,"[3]; spot X = CoQ9, Y = cholesterol, Z = lathosterol",inhibition of two spots (X and Y) and the increased accumulation of a third spot (Z)
same,neutral lipid changes after [14C]squalene labeling,"[3]; spot Y = cholesterol, spot Z = lathosterol",inhibition of spot Y and the accumulation of spot Z
same,reversibility of block of cholesterol synthesis,"[3]; switched to control medium, 3 hour chase",Lathosterol was observed to be converted to cholesterol
same,Body Weight,[4]; 1% POH diet,207 ± 3 g
same,Heart Weight,[4]; 1% POH diet,0.57 ± 0.05 g
same,Liver Weight,[4]; 1% POH diet,6.1 ± 0.3 g
same,HDL Cholesterol,"[4]; 1% POH diet, Kill",37.6 ± 3.8 mg/dL
same,Total Cholesterol,"[4]; 1% POH diet, Kill",47.7 ± 4.3 mg/dL
same,Triglyceride,"[4]; 1% POH diet, Kill",29.8 ± 8.9 mg/dL
same,LDL Cholesterol,"[4]; 1% POH diet, Kill, Friedewald's equation",4.1 ± 2.4 mg/dL
same,HDL Cholesterol,"[4]; 1% POH diet, WK3",31.7 ± 2.3 mg/dL
same,Total Cholesterol,"[4]; 1% POH diet, WK3",45.9 ± 4.2 mg/dL
same,Triglyceride,"[4]; 1% POH diet, WK3",20.8 ± 5.2 mg/dL
same,LDL Cholesterol,"[4]; 1% POH diet, WK3, Friedewald's equation",10.1 ± 3.1 mg/dL
same,HDL Cholesterol,"[4]; 1% POH diet, WK6",33.1 ± 2.2 mg/dL
same,Total Cholesterol,"[4]; 1% POH diet, WK6",41.0 ± 3.0 mg/dL
same,Triglyceride,"[4]; 1% POH diet, WK6",29.5 ± 5.7 mg/dL
same,LDL Cholesterol,"[4]; 1% POH diet, WK6, Friedewald's equation",2.0 ± 1.4 mg/dL
same,HDL Cholesterol,"[4]; 1% POH diet, WK9",31.5 ± 2.6 mg/dL
same,Total Cholesterol,"[4]; 1% POH diet, WK9",43.2 ± 4.9 mg/dL
same,Triglyceride,"[4]; 1% POH diet, WK9",28.7 ± 5.7 mg/dL
same,LDL Cholesterol,"[4]; 1% POH diet, WK9, Friedewald's equation",6.0 ± 4.0 mg/dL
same,Body Weight,[4]; 2% POH diet,198 ± 6 g
same,Heart Weight,[4]; 2% POH diet,0.57 ± 0.05 g
same,Liver Weight,[4]; 2% POH diet,6.2 ± 0.5 g
same,HDL Cholesterol,"[4]; 2% POH diet, Kill",39.8 ± 4.0 mg/dL
same,Total Cholesterol,"[4]; 2% POH diet, Kill",52.8 ± 6.8 mg/dL
same,Triglyceride,"[4]; 2% POH diet, Kill",33.8 ± 14.9 mg/dL
same,LDL Cholesterol,"[4]; 2% POH diet, Kill, Friedewald's equation",6.2 ± 1.8 mg/dL
same,HDL Cholesterol,"[4]; 2% POH diet, WK3",31.4 ± 1.6 mg/dL
same,Total Cholesterol,"[4]; 2% POH diet, WK3",44.2 ± 3.7 mg/dL
same,Triglyceride,"[4]; 2% POH diet, WK3",17.2 ± 5.3 mg/dL
same,LDL Cholesterol,"[4]; 2% POH diet, WK3, Friedewald's equation",9.4 ± 3.0 mg/dL
same,HDL Cholesterol,"[4]; 2% POH diet, WK6",33.5 ± 3.6 mg/dL
same,Total Cholesterol,"[4]; 2% POH diet, WK6",41.2 ± 5.0 mg/dL
same,Triglyceride,"[4]; 2% POH diet, WK6",21.1 ± 5.7 mg/dL
same,LDL Cholesterol,"[4]; 2% POH diet, WK6, Friedewald's equation",3.4 ± 2.2 mg/dL
same,HDL Cholesterol,"[4]; 2% POH diet, WK9",30.7 ± 2.9 mg/dL
same,Total Cholesterol,"[4]; 2% POH diet, WK9",40.7 ± 3.3 mg/dL
same,Triglyceride,"[4]; 2% POH diet, WK9",18.4 ± 2.9 mg/dL
same,LDL Cholesterol,"[4]; 2% POH diet, WK9, Friedewald's equation",6.4 ± 1.2 mg/dL
same,LDL level versus HDL level,[4]; after 6 weeks of treatment,LDL level is reduced much more than the HDL level
same,Triglyceride levels,[4]; after 6 weeks of treatment,dramatically reduced
same,total cholesterol level,[4]; after 6 weeks of treatment,reduced
same,differential isoprenylation in HT29,[5],differential isoprenylation
same,isoprenylation of 21-26 kDa proteins,[6],inhibited significantly
